Assay results taken from patent publication US20220332764A1, “T CELL EPITOPES OF HCMV AND USES OF THEREOF” (EBERHARD KARLS UNIVERSITÄT TÜBINGEN, priority 2019, published 2022).

Tested on: PBMCs of healthy HCMV-seropositive donors
Assay: IFNγ ELISpot after 12 day stimulation (memory T-cell response)
Assay type: cell-based, human
Conditions: for % Positive donors (after 12 days of stimulation): IFNγ ELISpot, HLA-matched seropositive donors; for Positive donors as tested: positive / tested HLA-matched seropositive donors, positive: >10 spots/well and at least 3-fold negative control
Text: PHA was used as positive control.

Sequence | % Positive donors (after 12 days of stimulation) | Positive donors as tested
AEPNFPKNVW (listed as Human cytomegalovirus) [SEQ ID NO: 46] | 14.3% | 2/14
ALFNQLVFTA (listed as Human cytomegalovirus) [SEQ ID NO: 16] | 13.3% | 2/15
ALLGRLYFI (listed as Human cytomegalovirus) [SEQ ID NO: 19] | 6.7% | 1/15
ALSPSTSKV (listed as Human cytomegalovirus) [SEQ ID NO: 9] | 23.5% | 4/17
ALYPEYIYTV (listed as Human cytomegalovirus) [SEQ ID NO: 14] | 16.7% | 3/18
APFGRVSV (listed as Human cytomegalovirus) [SEQ ID NO: 35] | 20.0% | 3/15
APNYRQVEL (listed as Human cytomegalovirus) [SEQ ID NO: 37] | 16.7% | 2/12
APYLRDTL (listed as Human cytomegalovirus) [SEQ ID NO: 39] | 5.3% | 1/19
DLDFGDLLKY (listed as Human cytomegalovirus) [SEQ ID NO: 65] | 12.5% | 2/16
EEATALGREL (listed as Human cytomegalovirus) [SEQ ID NO: 47] | 10.0% | 1/10
EEQDYRALL (listed as Human cytomegalovirus) [SEQ ID NO: 44] | 33.3% | 4/12
FFPKLQGNY (listed as Human cytomegalovirus) [SEQ ID NO: 23] | 16.7% | 2/12
FISSKHTL (listed as Human cytomegalovirus) [SEQ ID NO: 84] | 21.4% | 3/14
FPAHDWPEV (listed as Human cytomegalovirus) [SEQ ID NO: 94] | 13.3% | 2/15
FPDATVPATV (listed as Human cytomegalovirus) [SEQ ID NO: 96] | 6.7% | 1/15
FTDNVRFSV (listed as Human cytomegalovirus) [SEQ ID NO: 17] | 7.8% | 1/13
FVEGPGFMRY (listed as Human cytomegalovirus) [SEQ ID NO: 56] | 35.7% | 5/14
GLDQYLESV (listed as Human cytomegalovirus) [SEQ ID NO: 18] | 7.8% | 1/13
GLLAHIPAL (listed as Human cytomegalovirus) [SEQ ID NO: 13] | – | 2/11
GLNERLLSV (listed as Human cytomegalovirus) [SEQ ID NO: 15] | 15.0% | 3/20
GSDALPAGLY (listed as Human cytomegalovirus) [SEQ ID NO: 60] | 18.8% | 3/16
GVSSVTLLK (listed as Human cytomegalovirus) [SEQ ID NO: 73] | 35.7% | 5/14

Sequence | % Positive donors (after 12 days of stimulation) | Positive donors as tested
HLKLRPATF (listed as Human cytomegalovirus) [SEQ ID NO: 83] | 23.1% | 3/13
IAIPHFMVV (listed as Human cytomegalovirus) [SEQ ID NO: 91] | 33.3% | 5/15
IPDYRSVSL (listed as Human cytomegalovirus) [SEQ ID NO: 34] | 22.2% | 4/18
IPHNWFLQV (listed as Human cytomegalovirus) [SEQ ID NO: 92] | 33.3% | 5/15
IPMTFVDRDSL (listed as Human cytomegalovirus) [SEQ ID NO: 30] | 35.7% | 5/14
IPPPQIPFV (listed as Human cytomegalovirus) [SEQ ID NO: 90] | 40.0% | 6/15
IPVERQAL (listed as Human cytomegalovirus) [SEQ ID NO: 36] | 16.7% | 2/12
ISENGNLQVTY (listed as Human cytomegalovirus) [SEQ ID NO: 63] | 15.0% | 3/20
KLGGALQAK (listed as Human cytomegalovirus) [SEQ ID NO: 70] | 40.0% | 6/15
LENGVTHRF (listed as Human cytomegalovirus) [SEQ ID NO: 49] | 7.1% | 1/14
LLDELGAVFGY (listed as Human cytomegalovirus) [SEQ ID NO: 62] | 15.4% | 2/13
LPNDHHYAL (listed as Human cytomegalovirus) [SEQ ID NO: 38] | 5.9% | 1/17
LPYLSAERTV (listed as Human cytomegalovirus) [SEQ ID NO: 97] | 6.7% | 1/15
LYVGQFLAY (listed as Human cytomegalovirus) [SEQ ID NO: 21] | 25.0% | 3/12
MLRLLFTL (listed as Human cytomegalovirus) [SEQ ID NO: 86] | 7.1% | 1/14
MPVTHPPEV (listed as Human cytomegalovirus) [SEQ ID NO: 95] | 13.3% | 2/15
NYNEQHYRY (listed as Human cytomegalovirus) [SEQ ID NO: 20] | – | 5/13
QLRSVIRAL (listed as Human cytomegalovirus) [SEQ ID NO: 85] | 14.3% | 2/14
RENAGVALY (listed as Human cytomegalovirus) [SEQ ID NO: 45] | 19.1% | 4/21
REQAAIPQIY (listed as Human cytomegalovirus) [SEQ ID NO: 50] | 6.3% | 1/16
RLADVLIKR (listed as Human cytomegalovirus) [SEQ ID NO: 77] | 15.4% | 2/13
